Source: patent US10508281B2, “Disruption of ROCK1 gene leads to plants with improved traits” (priority 2014, dated 2019)
Residues, ends and D or L forms follow the SMILES beside them. *: point of attachment. Cbz = O=C(OCc1ccccc1)*

Key:
ipt3,5,7 = test: Restoration of growth of ipt3,5,7 mutant plants by CKX inhibitor application; type: in vivo, Arabidopsis thaliana; conditions: shoots sprayed with 10 μM INCYDE every 3 days; compared with suppression by rock1-1
Description: If not otherwise denoted, Arabidopsis thaliana Columbia-0 was used as the wild type. The T-DNA insertion lines rock1-2 (SALK_001259) and rock1-3 (901C01) were used. The following lines were described previously: 35S:CKX1-11, 35S:CKX2-9, 35S:CKX3-9, 35S:CKX7-GFP-26, ahk2-5, ahk3-7, cre1-2, atipt1, atipt3-2, atipt5-2, atipt7-1, cgl1 C6 (cgl1-2) and ARR5:GUS. Plants were grown in vitro on half-strength Murashige and Skoog (MS) medium containing 10 g/L sucrose, 0.5 g/L MES and 8 g/L phytagel. For analysis of root growth, 12 g/L phytagel and cytokinin or DMSO as solvent control were added to the medium. Plants were grown under long day conditions (16 h light/8 h dark; 21/18° C.) in vitro or in the green house. Shoots of soil grown plants were sprayed with 10 μM INCYDE and 0.01% Silwet L-77 every 3 days starting 3 days after germination. The binary vector constructs were transformed into Arabidopsis plants by Agrobacterium tumefaciens (strain GV3101:pMP90) mediated floral dip method.
To gain information about the specificity of rock1 in suppressing CKX overexpression phenotypes, rock1-1 was introgressed into 35S:CKX2, 35S:CKX3 and 35S:CKX7 plants.

ROCK1 = target: T1, ROCK1 (Arabidopsis thaliana, UniProt Q8LES0); test: Nucleotide-sugar transport assay: uptake of radiolabeled nucleotide sugars into yeast microsomes expressing FLAG-ROCK1; type: biochemical; conditions: ER/Golgi microsomal vesicles from S. cerevisiae expressing FLAG-ROCK1 vs empty vector control
T1 construct: FLAG (N); made in house; host or cells: Saccharomyces cerevisiae BY4741 (microsomal vesicles)
T1 sequence (Q8LES0 1-325): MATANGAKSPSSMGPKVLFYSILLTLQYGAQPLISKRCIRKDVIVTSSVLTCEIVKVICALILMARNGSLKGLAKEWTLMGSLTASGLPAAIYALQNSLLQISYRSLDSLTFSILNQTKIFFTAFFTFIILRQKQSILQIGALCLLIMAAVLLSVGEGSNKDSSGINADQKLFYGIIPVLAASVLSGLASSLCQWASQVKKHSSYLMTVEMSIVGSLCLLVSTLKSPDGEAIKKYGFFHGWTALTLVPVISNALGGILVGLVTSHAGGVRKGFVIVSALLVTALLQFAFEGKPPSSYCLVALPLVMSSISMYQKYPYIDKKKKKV
Description: (B) Measurement of ROCK1-mediated uptake of radiolabeled nucleotide sugars into yeast microsomes expressing FLAG-ROCK1 or empty vector. Means±SEM (n=3; *, P<0.05, t test).
Nucleotide-sugar transport into Saccharomyces cerevisiae (BY4741) transformed with the construct pYEScupFLAGK-ROCK1 or the empty vector control was measured as described by Ashikov et al. (2005): “cultured cells were harvested by centrifugation (5 min at 1,500×g) and washed twice with ice-cold 10 mm NaN3. The weight of wet cells was measured, and cells were resuspended in zymolyase buffer (3 ml/g of cells; 50 mm potassium phosphate, pH 7.5; 1.4 m sorbitol; 10 mm NaN3 and 0.3% β-mercaptoethanol) containing 0.6 mg/ml of zymolyase-100T. The suspension was incubated for 20 min at 30° C. Spheroplasts were collected by centrifugation (5 min at 1,000×g) and resuspended in lysis buffer (4 ml/g of cells; 10 mm Hepes-Tris, pH 7.4; 0.8 m sorbitol; 1 mm EDTA) containing complete EDTA-free protease inhibitor mixture (Roche Applied Science). After homogenization with 10 strokes in a Dounce homogenizer, the lysate was centrifuged (5 min, 1,500×g) to remove unlysed cells and debris. Endoplasmic reticulum- and Golgi-rich fractions were then obtained by centrifugation at 10,000×g for 10 min (endoplasmic reticulum) and 100,000×g for 1 h (Golgi). The 100,000×g pellet was carefully resuspended in lysis buffer (0.8 ml/g of cells), and aliquots of 100 μl were snap-frozen and kept at −80° C. Protein concentrations were determined using the BCA™ kit (Pierce). For transport assay reactions, equal volumes (50 μl of each) of 2 mm radioactive nucleotide sugar (2,000-4,000 dpm/pmol) in assay buffer (10 mm Tris-HCl, pH 7.0; 0.8 m sorbitol; 2 mm MgCl2) and vesicle preparation (equivalent to 75-100 μg of protein) were incubated for 30 s at 30° C. Reactions were stopped by dilution with 1 ml of assay buffer containing 1 μm respective cold nucleotide sugar. The separation of vesicles and nucleotide sugars was achieved by filtration trough nitrocellulose filter (MF™ membrane filters Millipore, Bedford, Mass.). Filters were washed three times with 2 ml of ice-cold assay buffer containing the corresponding cold nucleotide sugar at a concentration of 1 μm, and radioactivity associated with the vesicular fraction was measured by liquid scintillation in a LS 5000CE counter (Beckman Coulter). Golgi vesicles from yeast cells transformed with an empty vector were used to measure endogenous transport.”
To directly test the transport specificity of ROCK1, a FLAG-tagged ROCK1 protein was expressed in Saccharomyces cerevisiae, which has, with the exception of GDP-Man, a low background for most nucleotide sugar transport activities and is commonly used as a heterologous test system for NSTs. […]

myc-CKX1 = myc-CKX1 level in seedlings after proteasome inhibitor treatment (immunoblotting and densitometry); type: in vivo, Arabidopsis thaliana; conditions: seedlings treated with 100 μM MG132
Description: FIG. 4. ROCK1 regulates ERQC and CKX protein stability. (A) N-glycosylation status of myc-CKX1 protein in wild-type and rock1 seedlings. Protein extracts were treated with PNGase F or EndoH and the size of myc-CKX1 was compared to mock-treated control by SDS-PAGE and immunoblot with anti-myc antibody. (B) The loss of GnT-I activity in cgl1 mutants has no influence on the shoot phenotype of 35S:CKX1 plants (21 dag). (C) The level of myc-CKX1 is decreased in rock1 compared to wild type. Total protein extracts were analyzed by immunoblot with anti-myc antibody. Coomassie blue staining of Rubisco large subunit (RbcL) was used as loading control. Relative densitometric analysis of the myc-CKX1 signal is shown. […] Protein extracts were prepared from 7-d-old seedlings treated with mock or 100 μM CHX for indicated times and analyzed by immunoblotting. […] Seedlings were treated with 100 μM MG132 and myc-CKX1 analyzed by immunoblotting and densitometry. […] (F) Quantitative real-time PCR analysis of UPR genes in shoots of soil-grown seedlings 9 dag measured by. […]
Proteins were extracted and the concentration determined as described for the CKX activity assay. […] Intensities were normalized to the loading control and calculated relative to wild type samples. […]
To test CKX1 turnover, we analyzed myc-CKX1 levels in the presence of the translation inhibitor cycloheximide (CHX). […]

| uptake in vesicles expressing ROCK1, increased in comparison to the control (ROCK1) | SMILES | relative transport in ROCK1 microsomes versus empty vector control (in words) (ROCK1) | other results |
| --- | --- | --- | --- |
|  | COc1cccc(Nc2nc(Cl)nc3nc[nH]c23)c1 [chemical inhibitor of CKX activity] |  | restoration of ipt3,5,7 growth (ipt3,5,7): comparable restoration of ipt3,5,7 growth |
| 7 fold | CC(=O)N[C@H]1[C@@H](OP(=O)(O)OP(=O)(O)OC[C@H]2O[C@@H](n3ccc(=O)[nH]c3=O)[C@H](O)[C@@H]2O)O[C@H](CO)[C@H](O)[C@@H]1O [UDP-GalNAc, UDP-N-acetylgalactosamine] |  |  |
| 3 fold | CC(=O)N[C@H]1[C@@H](OP(=O)(O)OP(=O)(O)OC[C@H]2O[C@@H](n3ccc(=O)[nH]c3=O)[C@H](O)[C@@H]2O)O[C@H](CO)[C@@H](O)[C@@H]1O [UDP-GlcNAc, UDP-N-acetylglucosamine] |  |  |
|  | CC(C)C[C@@H](C=O)NC(=O)[C@H](CC(C)C)NC(=O)[C@H](CC(C)C)NC(=O)OCc1ccccc1 [MG132] (Cbz-Leu-Leu-Leu-aldehyde) |  | effect on myc-CKX1 levels in rock1 background (myc-CKX1; rock1 background): strongly stabilized myc-CKX1 levels; effect on level of myc-CKX1 in wild type (myc-CKX1; wild type background): increased the level of myc-CKX1 |
|  | Nc1nc2c(ncn2[C@@H]2O[C@H](COP(=O)(O)OP(=O)(O)O[C@H]3O[C@H](CO)[C@@H](O)[C@H](O)[C@@H]3O)[C@@H](O)[C@H]2O)c(=O)[nH]1 [GDP-Man] | lowered |  |
|  | CC1OC(OP(=O)(O)OP(=O)(O)OCC2OC(n3cnc4c(=O)[nH]c(N)nc43)C(O)C2O)C(O)C(O)C1O (stereo not shown) [GDP-Fuc] | lowered |  |
